4 compounds from publication PMC6789782, “Safety Pharmacological Evaluation of the Coffee Component, Caffeoylquinic Acid, and Its Metabolites, Using Ex Vivo and In Vitro Profiling Assays” (Pharmaceuticals, 2019) can be followed below.

Read-outs that look alike come from different tables or passages of the source.

Holding throughout (test): In vitro profiling, binding assay
The target of one assay is Vasopressin V1A (Homo sapiens, UniProt P37288). The method, then:
(§1) Binding and functional assays of CGAs with the proteins known to be pharmacological targets related to the CVS, CNS, and GI functions were conducted. […] In the binding assay, we measured the radiation activity of the solution containing filtered proteins that bound to the tested compound or high-affinity ligand, while in the functional assays, we measured the reaction product. The ability of the test compound to interact with the tested targets was measured as the inhibition of ligand binding to the target or reaction product production (% inhibition).

The target in the next assay is Adenosine A2A (Homo sapiens, UniProt P29274). The method, then: as §1
For the next assay, the target named is 5-HT2A (Homo sapiens, UniProt P28223). The method, then: as §1
A further assay deals with Dopamine D1 (Homo sapiens, UniProt P21728). The method, then: as §1
The target of the next assay is T1, Muscarinic M2 (Homo sapiens, UniProt P08172).
T1 sequence (P08172 1-466): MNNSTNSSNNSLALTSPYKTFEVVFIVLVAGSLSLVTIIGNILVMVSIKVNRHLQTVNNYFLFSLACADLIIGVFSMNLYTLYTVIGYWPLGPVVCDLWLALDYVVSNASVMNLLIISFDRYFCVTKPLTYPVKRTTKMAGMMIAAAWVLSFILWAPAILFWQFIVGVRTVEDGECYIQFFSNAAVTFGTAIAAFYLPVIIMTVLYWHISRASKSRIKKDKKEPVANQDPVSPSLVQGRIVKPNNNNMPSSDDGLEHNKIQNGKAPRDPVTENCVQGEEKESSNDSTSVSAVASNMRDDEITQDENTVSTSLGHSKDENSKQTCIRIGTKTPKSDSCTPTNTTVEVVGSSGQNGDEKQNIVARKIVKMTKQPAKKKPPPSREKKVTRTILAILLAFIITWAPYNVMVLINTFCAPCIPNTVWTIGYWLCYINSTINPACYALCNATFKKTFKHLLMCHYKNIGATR
The method, then: as §1

The target of the next assay is Opiate κ (Homo sapiens, UniProt P41145). The method, then:
as §1

In a further assay the target is T2, 5-HT1A (Homo sapiens, UniProt P08908).
T2 sequence (P08908 1-422): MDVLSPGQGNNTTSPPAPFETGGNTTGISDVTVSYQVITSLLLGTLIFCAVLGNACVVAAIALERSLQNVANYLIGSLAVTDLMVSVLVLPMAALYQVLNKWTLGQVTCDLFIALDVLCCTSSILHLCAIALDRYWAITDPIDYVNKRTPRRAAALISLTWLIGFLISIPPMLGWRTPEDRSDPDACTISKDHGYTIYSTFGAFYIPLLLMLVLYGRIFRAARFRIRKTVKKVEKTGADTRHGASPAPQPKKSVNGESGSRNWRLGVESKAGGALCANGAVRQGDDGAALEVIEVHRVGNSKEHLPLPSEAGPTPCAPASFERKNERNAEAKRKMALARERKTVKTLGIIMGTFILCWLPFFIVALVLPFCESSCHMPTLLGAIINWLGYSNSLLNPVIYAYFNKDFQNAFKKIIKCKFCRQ
The method, then:
as §1

Another assay has as its target Histamine H2 (Homo sapiens, UniProt P25021). The method, then: as §1
The target of assay [1] is Transporter, Dopamine (DAT) (Homo sapiens, UniProt Q01959). The method, then:
as §1

In the next assay the target is T3, Endothelin ETA (Homo sapiens, UniProt P25101).
T3 sequence (P25101 21-427): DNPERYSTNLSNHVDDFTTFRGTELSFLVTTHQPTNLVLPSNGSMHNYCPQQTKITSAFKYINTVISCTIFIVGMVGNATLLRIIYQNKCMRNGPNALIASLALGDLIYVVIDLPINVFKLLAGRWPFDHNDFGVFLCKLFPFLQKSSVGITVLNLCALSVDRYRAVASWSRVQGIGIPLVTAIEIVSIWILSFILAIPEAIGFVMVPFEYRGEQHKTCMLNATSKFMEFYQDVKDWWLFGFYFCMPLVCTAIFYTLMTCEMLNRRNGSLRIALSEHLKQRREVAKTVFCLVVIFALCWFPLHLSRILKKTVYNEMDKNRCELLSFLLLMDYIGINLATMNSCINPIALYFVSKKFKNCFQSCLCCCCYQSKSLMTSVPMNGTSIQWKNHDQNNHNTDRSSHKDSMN
The method, then: as §1

A further assay deals with T4, Adrenergic α1A (Rattus norvegicus, UniProt P43140).
T4 sequence (P43140 1-466): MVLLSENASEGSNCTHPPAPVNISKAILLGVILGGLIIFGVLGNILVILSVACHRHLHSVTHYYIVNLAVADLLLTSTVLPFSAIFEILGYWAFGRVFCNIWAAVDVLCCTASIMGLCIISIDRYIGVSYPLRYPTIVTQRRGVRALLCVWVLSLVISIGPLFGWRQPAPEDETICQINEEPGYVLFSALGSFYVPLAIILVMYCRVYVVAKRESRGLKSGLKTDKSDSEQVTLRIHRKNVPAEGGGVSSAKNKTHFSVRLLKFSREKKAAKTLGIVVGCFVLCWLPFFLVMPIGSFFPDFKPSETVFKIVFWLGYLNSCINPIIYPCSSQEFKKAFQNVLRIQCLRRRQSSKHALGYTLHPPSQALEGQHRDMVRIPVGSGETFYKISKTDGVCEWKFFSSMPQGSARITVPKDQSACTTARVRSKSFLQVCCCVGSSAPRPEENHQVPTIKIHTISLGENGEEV
The method, then: as §1

Setting [2] is: 30 µM, Vasopressin V1A, read-out: % Inhibition.
Where [3] appears, read: 30 µM, Adenosine A2A, read-out: % Inhibition.
Setting [4] is: 30 µM, Dopamine D1, read-out: % Inhibition.
Where [5] appears, read: 30 µM, Muscarinic M2, read-out: % Inhibition.
The mark [6] stands for this setting: 30 µM, Opiate κ, read-out: % Inhibition.
Where [7] appears, read: 30 µM, 5-HT1A, read-out: % Inhibition.
[8] abbreviates: 30 µM, Histamine H2, read-out: % Inhibition.
[9] abbreviates: 30 µM, Transporter, Dopamine (DAT), read-out: % Inhibition.
Where [10] appears, read: 30 µM, Endothelin ETA, read-out: % Inhibition.
[11] abbreviates: 30 µM, Adrenergic α1A, read-out: % Inhibition.

Chain of Vasopressin V1A (P37288 whole entry): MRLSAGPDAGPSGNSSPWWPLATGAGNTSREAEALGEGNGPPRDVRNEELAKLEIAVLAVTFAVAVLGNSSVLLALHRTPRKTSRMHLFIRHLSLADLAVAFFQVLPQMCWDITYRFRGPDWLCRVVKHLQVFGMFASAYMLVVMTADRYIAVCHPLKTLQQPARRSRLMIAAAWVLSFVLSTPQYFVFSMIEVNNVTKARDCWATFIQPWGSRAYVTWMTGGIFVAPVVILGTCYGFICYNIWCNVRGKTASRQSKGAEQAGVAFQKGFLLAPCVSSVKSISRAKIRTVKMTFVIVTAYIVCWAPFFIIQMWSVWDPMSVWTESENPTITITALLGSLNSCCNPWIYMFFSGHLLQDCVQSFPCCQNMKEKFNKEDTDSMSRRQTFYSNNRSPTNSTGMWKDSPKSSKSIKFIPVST
Chain of 5-HT2A (P28223 whole entry): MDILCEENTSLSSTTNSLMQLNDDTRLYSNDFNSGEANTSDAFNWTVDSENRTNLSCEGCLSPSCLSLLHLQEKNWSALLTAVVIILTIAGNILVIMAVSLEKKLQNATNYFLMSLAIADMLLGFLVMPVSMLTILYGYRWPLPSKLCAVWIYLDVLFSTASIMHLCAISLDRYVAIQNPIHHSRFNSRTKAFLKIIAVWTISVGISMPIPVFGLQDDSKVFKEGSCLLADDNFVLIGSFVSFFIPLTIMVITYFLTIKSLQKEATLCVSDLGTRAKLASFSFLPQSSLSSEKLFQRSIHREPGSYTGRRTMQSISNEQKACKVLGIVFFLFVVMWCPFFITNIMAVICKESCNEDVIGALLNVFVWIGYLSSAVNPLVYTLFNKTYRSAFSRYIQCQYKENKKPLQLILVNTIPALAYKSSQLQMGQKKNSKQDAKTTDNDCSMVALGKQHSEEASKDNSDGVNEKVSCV
Chain of Transporter, Dopamine (DAT) (Q01959 whole entry): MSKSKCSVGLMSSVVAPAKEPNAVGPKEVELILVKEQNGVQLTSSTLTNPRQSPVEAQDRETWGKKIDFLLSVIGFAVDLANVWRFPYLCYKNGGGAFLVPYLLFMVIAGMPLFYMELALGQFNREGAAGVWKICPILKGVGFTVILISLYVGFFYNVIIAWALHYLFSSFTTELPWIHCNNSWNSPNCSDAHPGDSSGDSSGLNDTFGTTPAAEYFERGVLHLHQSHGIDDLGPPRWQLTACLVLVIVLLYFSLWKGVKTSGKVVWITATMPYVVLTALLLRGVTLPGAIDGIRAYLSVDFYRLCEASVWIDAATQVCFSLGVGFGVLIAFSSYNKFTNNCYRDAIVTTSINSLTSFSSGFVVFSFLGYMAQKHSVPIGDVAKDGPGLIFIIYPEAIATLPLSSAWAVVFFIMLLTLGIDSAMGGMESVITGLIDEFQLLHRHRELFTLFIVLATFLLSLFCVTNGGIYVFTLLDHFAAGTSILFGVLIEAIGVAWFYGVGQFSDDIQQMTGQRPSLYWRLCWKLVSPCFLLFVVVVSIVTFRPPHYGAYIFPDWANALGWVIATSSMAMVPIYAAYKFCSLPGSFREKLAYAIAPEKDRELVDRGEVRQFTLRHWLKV
Chain of Dopamine D1 (P21728 whole entry): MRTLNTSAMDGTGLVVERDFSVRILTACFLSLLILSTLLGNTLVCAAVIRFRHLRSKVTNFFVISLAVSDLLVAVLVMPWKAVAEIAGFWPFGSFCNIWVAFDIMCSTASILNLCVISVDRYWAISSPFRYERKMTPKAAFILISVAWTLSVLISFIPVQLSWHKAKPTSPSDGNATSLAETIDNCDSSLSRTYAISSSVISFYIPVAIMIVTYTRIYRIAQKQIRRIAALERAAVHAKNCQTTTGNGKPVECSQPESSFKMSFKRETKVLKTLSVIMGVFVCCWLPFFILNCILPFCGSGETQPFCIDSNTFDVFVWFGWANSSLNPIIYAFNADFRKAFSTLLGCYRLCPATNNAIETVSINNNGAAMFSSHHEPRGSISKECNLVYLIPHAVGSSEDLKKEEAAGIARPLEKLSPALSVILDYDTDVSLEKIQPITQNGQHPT
Chain of Adenosine A2A (P29274 whole entry): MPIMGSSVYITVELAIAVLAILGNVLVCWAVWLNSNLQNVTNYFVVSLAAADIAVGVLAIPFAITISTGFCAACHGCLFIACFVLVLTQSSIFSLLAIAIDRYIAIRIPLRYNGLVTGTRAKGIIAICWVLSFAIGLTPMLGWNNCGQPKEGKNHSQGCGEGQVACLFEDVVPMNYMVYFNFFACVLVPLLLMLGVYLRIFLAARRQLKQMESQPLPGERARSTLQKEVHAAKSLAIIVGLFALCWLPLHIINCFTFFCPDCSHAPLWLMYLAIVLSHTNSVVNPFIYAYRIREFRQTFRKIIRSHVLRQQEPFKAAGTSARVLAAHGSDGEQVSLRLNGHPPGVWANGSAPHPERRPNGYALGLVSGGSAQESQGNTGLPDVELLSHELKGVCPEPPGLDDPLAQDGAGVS
Chain of Opiate κ (P41145 whole entry): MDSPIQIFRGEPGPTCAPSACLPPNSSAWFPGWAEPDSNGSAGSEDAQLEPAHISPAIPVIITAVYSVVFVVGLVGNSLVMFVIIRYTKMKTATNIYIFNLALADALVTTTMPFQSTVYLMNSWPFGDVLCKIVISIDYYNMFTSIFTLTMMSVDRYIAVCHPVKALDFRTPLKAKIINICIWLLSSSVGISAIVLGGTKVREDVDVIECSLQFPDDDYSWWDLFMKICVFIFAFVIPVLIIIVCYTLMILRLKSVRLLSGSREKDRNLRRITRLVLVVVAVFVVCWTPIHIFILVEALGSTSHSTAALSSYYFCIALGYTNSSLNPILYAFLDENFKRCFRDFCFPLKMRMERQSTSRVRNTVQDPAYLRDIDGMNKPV
Chain of Histamine H2 (P25021 whole entry): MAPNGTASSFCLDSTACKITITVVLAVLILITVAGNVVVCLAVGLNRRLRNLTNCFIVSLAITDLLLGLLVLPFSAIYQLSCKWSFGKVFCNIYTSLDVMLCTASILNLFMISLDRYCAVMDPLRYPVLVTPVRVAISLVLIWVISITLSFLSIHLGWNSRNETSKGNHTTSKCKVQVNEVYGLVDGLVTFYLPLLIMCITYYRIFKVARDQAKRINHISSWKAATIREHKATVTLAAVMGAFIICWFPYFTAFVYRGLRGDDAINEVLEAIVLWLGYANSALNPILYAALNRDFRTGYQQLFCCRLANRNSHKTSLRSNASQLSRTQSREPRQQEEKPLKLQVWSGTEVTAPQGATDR

Consider `O=C(O)/C=C/c1ccc(O)c(O)c1` [CA, caffeic acid], for which the “% Inhibition” value at Vasopressin V1A (30 µM, Vasopressin V1A) came out at 9%; at Adenosine A2A (30 µM, Adenosine A2A), 4%; on Dopamine D1 (30 µM, Dopamine D1) it was 5%; at Muscarinic M2 (30 µM, Muscarinic M2), 23%; at Opiate κ (30 µM, Opiate κ) it was 3%; at 5-HT1A (30 µM, 5-HT1A), 9%. Further, the “% Inhibition” value on Histamine H2 (30 µM, Histamine H2) is recorded as −6%; in assay [1] (30 µM, Transporter, Dopamine (DAT)), 2%; on Endothelin ETA (30 µM, Endothelin ETA), 4%; at Adrenergic α1A (30 µM, Adrenergic α1A), 10%. The inhibition at 30 µM at 5-HT2A turned out to be 7%.

Consider `COc1cc(/C=C/C(=O)O)ccc1O` [FA, ferulic acid], for which the inhibition at 30 µM was 6% at Vasopressin V1A; -14% at Adenosine A2A; -1% at Dopamine D1; 17% at Muscarinic M2; 3% at Opiate κ; 2% on 5-HT1A. The inhibition at 30 µM at Histamine H2 was -5%; in [1] it was 0%; on Endothelin ETA, 1%; at Adrenergic α1A, -2%.

`COc1cc(/C=C/C(=O)O[C@H]2C[C@@](O)(C(=O)O)C[C@H](O)[C@@H]2O)ccc1O` [5-FQA, 5-O-feruloylquinic acid]: the inhibition at 30 µM is 16% on Vasopressin V1A (setting [2]); 2% on Adenosine A2A (setting [3]); 8% on 5-HT2A; 22% on Dopamine D1 (setting [4]); 7% at Muscarinic M2 (setting [5]); -7% at Opiate κ (setting [6]). For the same compound, the inhibition at 30 µM was 11% at 5-HT1A (setting [7]); -5% on Histamine H2 (setting [8]); 6% in [1] (setting [9]); 1% on Endothelin ETA (setting [10]); 10% at Adrenergic α1A (setting [11]).

As to `O=C(/C=C/c1ccc(O)c(O)c1)O[C@H]1C[C@@](O)(C(=O)O)C[C@H](O)[C@@H]1O` [5-CQA, 5-O-caffeoylquinic acid], the inhibition at 30 µM on Vasopressin V1A (setting [2]) is 0%; on Adenosine A2A (setting [3]) it was -7%; on 5-HT2A it was 3%; on Dopamine D1 (setting [4]), 7%; at Muscarinic M2 (setting [5]), -1%; on Opiate κ (setting [6]), -3%. Besides, the inhibition at 30 µM is 12% at 5-HT1A (setting [7]); 0% at Histamine H2 (setting [8]); -10% in assay [1] (setting [9]); 3% at Endothelin ETA (setting [10]); 14% at Adrenergic α1A (setting [11]).
